Reference: patent US20060122194A1, “Tablet comprising efletirizine and pseudoephedrine” (UCB Farchim S.A., priority 2002, published 2006)

Assays:
[1] = stability of the tablet / of efletirizine with pseudoephedrine; assay type: physicochemical; conditions: efletirizine and pseudoephedrine formulated together in the same segment
[2] = target: histamine H1-receptor (Homo sapiens, UniProt P35367); conditions: in vitro; cited from earlier work
histamine H1-receptor, sequence (P35367 whole entry, species assumed): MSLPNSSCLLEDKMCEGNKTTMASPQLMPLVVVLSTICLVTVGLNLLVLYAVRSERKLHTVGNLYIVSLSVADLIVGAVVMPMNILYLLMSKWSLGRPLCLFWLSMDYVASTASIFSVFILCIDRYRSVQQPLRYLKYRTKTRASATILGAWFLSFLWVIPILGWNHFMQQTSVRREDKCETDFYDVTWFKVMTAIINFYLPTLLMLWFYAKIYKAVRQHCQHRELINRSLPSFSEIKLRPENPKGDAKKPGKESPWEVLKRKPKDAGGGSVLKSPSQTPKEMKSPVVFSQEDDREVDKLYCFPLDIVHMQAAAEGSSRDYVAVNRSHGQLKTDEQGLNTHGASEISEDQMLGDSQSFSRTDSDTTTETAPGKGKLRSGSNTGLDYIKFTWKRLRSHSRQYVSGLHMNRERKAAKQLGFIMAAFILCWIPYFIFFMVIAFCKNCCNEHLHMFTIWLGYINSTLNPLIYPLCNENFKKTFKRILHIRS

SMILES: O=C(O)COCCN1CCN(C(c2ccc(F)cc2)c2ccc(F)cc2)CC1 [Efletirizine, 2-{2-[4-[bis(4-fluorophenyl)methyl)-1-piperazinyl]ethoxy}acetic acid]
- degradation of efletirizine [1]: a degradation of efletirizine appeared
- affinity and selectivity for H1-receptors [2]: high affinity and selectivity
